{"source": "patent US4464385A", "about": "“Treatment of diabetic complications with hydantoins” (Alcon Laboratories, Inc., priority 1982, dated 1984)", "test_system": "cataracts in rats", "test": "Prevention or retardation of cataracts in galactose-fed rats", "type": "in vivo, rat", "settings": "0.0025% in diet", "experimental": "The compounds to be tested were:\nTest compound/diet mixtures were formulated as follows: […]\nSimilarly, the 0.01% level was designed to provide a drug concentration of 20 mg per kilogram per day.\nAll animals were fed the Purina Laboratory Chow and water, ad libitum for a two day acclimatization period. The indicated test compound/diet mixture then was introduced to all animals on Study Day 1 and the animals were maintained on this diet throughout thirty days of the study.\nSufficient amounts of test compound/diet mixture were maintained in the food hoppers to allow the animals to eat ad libitum. All aliquots of test compound/diet mixture added to the food hoopers were weighed and the weights, as well as day of addition, recorded.\nTwelve animals were assigned to each treatment with each compound at the indicated percentage by total weight of feed. All eyes were examined with a handheld ophthalmoscope and/or penlight."}
{"molecule": "O=C1NC(=O)C2(CCOc3ccc(F)cc32)N1", "note": "(single isomer, unassigned) [SARGES**, dspiro (6fluoro-chroman-4,4imidazolidine)-2',5dione, reference compound]", "values": [{"measurement": "time of suppression, time to vacuole formation", "result": 20.8, "unit": "days"}, {"measurement": "suppression of the formation of nuclear cataracts", "setting": "30 days", "result": 100, "unit": "%"}]}
